Values after ≈ are worked out from the molar mass of the structure shown.
Tests used:
[1] = tested on: Mycobacterium tuberculosis variant bovis BCG; experiment: Antimycobacterial activity against active stage of Mycobacterium bovis BCG ATCC 35734 measured on day 8 by nitrate reductase assay; type: functional, organism-based; settings: ATCC 35734, 192 h
[2] = tested on: Mycobacterium tuberculosis variant bovis BCG; experiment: Antimycobacterial activity against dormant stage of Mycobacterium bovis BCG ATCC 35734 measured on day 12 by nitrate reductase assay; type: functional, organism-based; settings: ATCC 35734, 288 h

Compound	IC50 [1] [µg/mL]	MIC [1] [µg/mL]	IC50 [2] [µg/mL]	MIC [2] [µg/mL]
Cc1nc(-c2cccnc2)sc1-c1nnc(-c2ccc([N+](=O)[O-])cc2)o1	22.5 (≈ 61.6 µM)	> 30	24.9 (≈ 68.2 µM)	> 30
Cc1nc(-c2cccnc2)sc1-c1nnc(-c2ccc(O)cc2)o1	> 30	> 30	> 30	> 30
Cc1ccc(-c2nnc(-c3sc(-c4cccnc4)nc3C)o2)cc1	14.2 (≈ 42.6 µM)	> 30	15.2 (≈ 45.5 µM)	> 30
Cc1nc(-c2cccnc2)sc1-c1nnc(-c2cccc(Cl)c2Cl)o1	> 30	> 30	> 30	> 30
Cc1nc(-c2cccnc2)sc1-c1nnc(-c2ccc(Cl)cc2)o1	> 30	> 30	> 30	> 30
Cc1cccc(-c2nnc(-c3sc(-c4cccnc4)nc3C)o2)c1	> 30	> 30	> 30	> 30
Cc1nc(-c2cccnc2)sc1-c1nnc(-c2ccccc2)o1	> 30	> 30	> 30	> 30
Cc1ccccc1-c1nnc(-c2sc(-c3cccnc3)nc2C)o1	2.69 (≈ 8.04 µM)	5.84 (≈ 17.5 µM)	1.44 (≈ 4.31 µM)	4.91 (≈ 14.7 µM)
CO[C@H]1/C=C/O[C@@]2(C)Oc3c(C)c(O)c4c(O)c(c(/C=N/N5CCN(C)CC5)c(O)c4c3C2=O)NC(=O)/C(C)=C\C=C\[C@H](C)[C@H](O)[C@@H](C)[C@@H](O)[C@@H](C)[C@H](OC(C)=O)[C@@H]1C [RIFAMPIN]	0.003 (≈ 0.00365 µM)	0.08 (≈ 0.0972 µM)	0.0027 (≈ 0.00328 µM)	0.05 (≈ 0.0608 µM)
Cc1nc(-c2cccnc2)sc1-c1nnc(-c2ccc(Br)cc2)o1	> 30	> 30	> 30	> 30
Cc1nc(-c2cccnc2)sc1-c1nnc(-c2ccncc2)o1	24.7 (≈ 76.8 µM)	40 (≈ 125 µM)	28 (≈ 87 µM)	42.2 (≈ 131 µM)
COc1ccccc1-c1nnc(-c2sc(-c3cccnc3)nc2C)o1	1.46 (≈ 4.17 µM)	2.65 (≈ 7.56 µM)	1.8 (≈ 5.14 µM)	3.95 (≈ 11.3 µM)
Cc1nc(-c2cccnc2)sc1-c1nnc(-c2cccnc2)o1	24.5 (≈ 76.2 µM)	40.4 (≈ 126 µM)	56.3 (≈ 175 µM)	94.9 (≈ 295 µM)
Cc1nc(-c2cccnc2)sc1-c1nnc(Cc2ccccc2)o1	7.2 (≈ 21.5 µM)	11.3 (≈ 33.8 µM)	5.26 (≈ 15.7 µM)	10.4 (≈ 31 µM)
Cc1nc(-c2cccnc2)sc1-c1nnc(-c2ccccc2Cl)o1	2.62 (≈ 7.38 µM)	5.16 (≈ 14.5 µM)	1.47 (≈ 4.14 µM)	4.77 (≈ 13.4 µM)
Cc1nc(-c2cccnc2)sc1-c1nnc(-c2ccccc2[N+](=O)[O-])o1	1.68 (≈ 4.6 µM)	2.56 (≈ 7.01 µM)	3.55 (≈ 9.72 µM)	5.89 (≈ 16.1 µM)
